We go through 25 compounds from patent US10696693B2, “Fused imidazole derivatives as TGF-beta inhibitors” (Rigel Pharmaceuticals, Inc., priority 2014, dated 2020).

Experiment [1] deals with GDF8. The experiment can be described thus: AlphaScreen SureFire p-SMAD3 (Ser423/425) assay, GDF8-stimulated cells. The note with it: Mus musculus. The experiment is classed as cell-based. The source says:
(§1) The p-SMAD-3 (Ser423/425) SureFire® assay has been designed to measure the phosphorylation of endogenous cellular p-SMAD-3 (Ser423/425) in cell lysates and is a system for the screening of both modulators of receptor activation (e.g. agonists and antagonists) as well as agents acting intracellularly, such as small molecule inhibitors of upstream events. The assay will measure p-SMAD-3 (Ser423/425) activation by either cloned or endogenous receptors, and can be applied to primary cells.
(§2) 96-well Assay Protocol for 293FT and RMS13 adherent cells can be carried out manually or in high throughput with liquid handling robots.
(§3) The cells (80 μL of cells for 96 well plates) were plated in collagen coated tissue culture plates in RPMI or FreeStyle medium (Invitrogen) and incubated overnight. For manual analysis, 6 plates for GDF8, 6 plates for TGFβ, and optionally 6 plates for Alk5ca(ALK5 constitutively active) were used.
(§4) The compound dilution plates were prepared as follows: 12 μL of DMSO was transferred into first column of 96-well plate, and 16 μL of DMSO was transferred into columns 2-12 of the 96-well plate. 12 μL of compound solution was transferred into first column of the DMSO-containing 96-well plate. Three-fold dilution was performed up to column 10 of the DMSO-containing 96-well plate.
(§5) The plate containing cells were treated with compounds for about 10 minutes, and then ligand was added. GDF8 or TGFb was added to plates to stimulate. 293FL cells were stimulatedfor 90 minutes at 37° C.; and RMS13 cells were stimulated for 60 minutes at 37° C. The medium was then removed from the cells, and 1× Lysis Buffer (about 25 μL) was added and the plate was gently agitated on plate shaker for 5-10 minutes.
(§6) The lysate (5 μL) was then placed into 384-well shallow plates avoiding the generation of bubbles. To this, the Reaction Buffer+Activation Buffer+AlphaScreen® Acceptor beadsmixture (5 μL) was added. The plate was sealed with adhesive cover and shielded from light (e.g., with metal foil), and agitated gently on plate shaker for 2 hours at room temperature.
(§7) Dilution buffer+AlphaScreen® Donor beads (2 μL) was then added, and the plate was intubated on the plate shaker for an additional 1½ hours. After completion, the plate was read on Synergy-4 or Enspire plate reader, using AlphaScreen® pSMAD3® settings.
(§8) Representative results for inhibition of GDF8 (data=GDF pSMAD (MPC11) (μM)) and TGF-β (data=TGF-β pSMAD (MPC-11) (μM)) signaling are shown in Table 1(A=<0.05 μM, B=0.05−<0.1 μM, C=0.1−<1.0 μM, D=>1.0 μM): […]
In general terms: Alpha assays give light when donor and acceptor beads are brought close together.

The subject of experiment [2] is TGF-β. The experiment can be described thus: AlphaScreen SureFire p-SMAD3 (Ser423/425) assay, TGF-β-stimulated cells. In kind it is cell-based. The settings on record: Mus musculus.
Text: as §1, §2, §3, §4, §5, §6, §7, §8

The mark [3] stands for this setting: MPC-11, p-SMAD3 (Ser423/425) AlphaScreen in cell lysate, MPC11, GDF8 stimulation, read-out: GDF8: inhibition of GDF8 signaling, GDF pSMAD (MPC11).
The mark [4] stands for this setting: p-SMAD3 (Ser423/425) AlphaScreen in cell lysate, MPC-11, TGF-β stimulation, read-out: TGF-β: inhibition of TGF-β signaling, TGF-β pSMAD (MPC-11).

Like-named read-outs stand apart in the source and are kept apart here.

On to `COc1c(C)cc(-c2nc3n(c2-c2ccc4ncnn4c2)CCC3)cc1C` [Compound 30, 6-(2-(4-methoxy-3,5-dimethylphenyl)-6,7-dihydro-5H-pyrrolo[1,2-a]imidazol-3-yl)-[1,2,4]triazolo[1,5-a]pyridine], for which the IC50 in experiment [1] (setting [3]) and in experiment [2] (setting [4]) was more than 1000 nM each time.
With `COc1c(C)cc(-c2nc3n(c2-c2ccc4nccn4c2)CCC3)cc1C` [Compound 31, 6-(2-(4-methoxy-3,5-dimethylphenyl)-6,7-dihydro-5H-pyrrolo[1,2-c]imidazol-3-yl)imidazo[1,2-c]pyridine], the IC50 in experiment [1] (setting [3]) and in experiment [2] (setting [4]) was more than 1000 nM throughout.
`Cc1cc(F)c(F)cc1-c1nc2n(c1-c1ccc3nccn3c1)CCC2` [Compound 32]: the IC50 in experiment [1] (setting [3]) is 100 to 1000 nM; in experiment [2] (setting [4]) it was more than 1000 nM.
Regarding `Fc1cc(-c2nc3n(c2-c2ccc4nnc(C(F)(F)F)n4c2)CCC3)cc(F)c1F` [Compound 33, 3-(trifluoromethyl)-6-(2-(3,4,5-trifluorophenyl)-6,7-dihydro-5H-pyrrolo[1,2-c]imidazol-3-yl)-[1,2,4]triazolo[4,3-c]pyridine], the IC50 in experiment [1] (setting [3]) and in experiment [2] (setting [4]) was more than 1000 nM in each case.
`Fc1cc(F)c(-c2nc3n(c2-c2ccc4nnc(C(F)(F)F)n4c2)CCC3)cc1F` [Compound 34, 3-(trifluoromethyl)-6-(2-(2,4,5-trifluorophenyl)-6,7-dihydro-5H-pyrrolo[1,2-c]imidazol-3-yl)-[1,2,4]triazolo[4,3-c]pyridine]: the IC50 in experiment [1] (setting [3]) and in experiment [2] (setting [4]) was more than 1000 nM in each case.
As to `Fc1ccc(-c2nc3n(c2-c2ccc4nnc(C(F)(F)F)n4c2)CCC3)c(F)c1F` [Compound 35], the IC50 in experiment [1] (setting [3]) and in experiment [2] (setting [4]) was more than 1000 nM each time.
As for `Fc1ccc(-c2nc3n(c2-c2ccc4ncnn4c2)CCC3)cc1Cl` [Compound 36, 6-(2-(3-chloro-4-fluorophenyl)-6,7-dihydro-5H-pyrrolo[1,2-a]imidazol-3-yl)-[1,2,4]triazolo[1,5-a]pyridine], the IC50 in experiment [1] (setting [3]) is less than 50 nM; in experiment [2] (setting [4]) it was 100 to 1000 nM.
Consider `Fc1ccc(-c2nc3n(c2-c2ccc4nccn4c2)CCC3)cc1Cl` [Compound 37], for which the IC50 lay within 50 to 100 nM in experiment [1] (setting [3]) and 100 to 1000 nM in experiment [2] (setting [4]).
As for `Cc1cc(-c2nc3n(c2-c2ccc4ncnn4c2)CCC3)c(F)cc1F` [Compound 38, 6-(2-(2,4-difluoro-5-methylphenyl)-6,7-dihydro-5H-pyrrolo[1,2-a]imidazol-3-yl)-[1,2,4]triazolo[1,5-a]pyridine], the IC50 in experiment [1] (setting [3]) and in experiment [2] (setting [4]) was less than 50 nM throughout.
As to `Cc1cc(-c2nc3n(c2-c2ccc4nccn4c2)CCC3)c(F)cc1F` [Compound 39, 6-(2-(2,4-difluoro-5-methylphenyl)-6,7-dihydro-5H-pyrrolo[1,2-a]imidazol-3-yl)imidazo[1,2-c]pyridine], the IC50 in experiment [1] (setting [3]) is less than 50 nM; in experiment [2] (setting [4]), 50 to 100 nM.
Taken in the same sequence, the figures for `Cc1cc(-c2nc3n(c2-c2ccc4ncnn4c2)CCC3)cc(Cl)c1F` [Compound 40, 6-(2-(3-chloro-4-fluoro-5-methylphenyl)-6,7-dihydro-5H-pyrrolo[1,2-c]imidazol-3-yl)-[1,2,4]triazolo[1,5-c]pyridine] were more than 1000 nM and more than 1000 nM.
For `Cc1cc(-c2nc3n(c2-c2ccc4nccn4c2)CCC3)cc(Cl)c1F` [Compound 41, 6-(2-(3-chloro-4-fluoro-5-methylphenyl)-6,7-dihydro-5H-pyrrolo[1,2-c]imidazol-3-yl)imidazo[1,2-c]pyridine], in that order: more than 1000 nM and more than 1000 nM.
For `Cc1cc(-c2nc3n(c2-c2ccc4ncnn4c2)CCC3)cc(C)c1F` [Compound 42, 6-(2-(4-fluoro-3,5-dimethylphenyl)-6,7-dihydro-5H-pyrrolo[1,2-a]imidazol-3-yl)-[1,2,4]triazolo[1,5-a]pyridine], in that order: more than 1000 nM and more than 1000 nM.
For `Cc1cc(-c2nc3n(c2-c2ccc4nccn4c2)CCC3)cc(C)c1F` [Compound 43, 6-(2-(4-fluoro-3,5-dimethylphenyl)-6,7-dihydro-5H-pyrrolo[1,2-a]imidazol-3-yl)imidazo[1,2-c]pyridine], the IC50 in experiment [1] (setting [3]) and in experiment [2] (setting [4]) was more than 1000 nM throughout.
For the compound `Cc1c(-c2nc3n(c2-c2ccc4ncnn4c2)CCC3)ccc(F)c1F` [Compound 44, 6-(2-(3,4-difluoro-2-methylphenyl)-6,7-dihydro-5H-pyrrolo[1,2-a]imidazol-3-yl)-[1,2,4]triazolo[1,5-a]pyridine], the results for the IC50 in experiment [1] (setting [3]) and in experiment [2] (setting [4]) were 100 to 1000 nM and more than 1000 nM, respectively.
Consider `Cc1c(F)ccc(-c2nc3n(c2-c2ccc4ncnn4c2)CCC3)c1F` [Compound 45, 6-(2-(2,4-difluoro-3-methylphenyl)-6,7-dihydro-5H-pyrrolo[1,2-a]imidazol-3-yl)-[1,2,4]triazolo[1,5-a]pyridine], for which the IC50 in experiment [1] (setting [3]) and in experiment [2] (setting [4]) was 100 to 1000 nM throughout.
`Cc1c(F)ccc(-c2nc3n(c2-c2ccc4nccn4c2)CCC3)c1F` [Compound 46, 6-(2-(2,4-difluoro-3-methylphenyl)-6,7-dihydro-5H-pyrrolo[1,2-a]imidazol-3-yl)imidazo[1,2-a]pyridine]: the IC50 in experiment [1] (setting [3]) and in experiment [2] (setting [4]) was 100 to 1000 nM in each case.
Regarding `Cc1cc(F)c(-c2nc3n(c2-c2ccc4ncnn4c2)CCC3)cc1F` [Compound 47, 6-(2-(2,5-difluoro-4-methylphenyl)-6,7-dihydro-5H-pyrrolo[1,2-a]imidazol-3-yl)-[1,2,4]triazolo[1,5-a]pyridine], the IC50 in experiment [1] (setting [3]) and in experiment [2] (setting [4]) was more than 1000 nM throughout.
On to `Cc1cc(F)c(-c2nc3n(c2-c2ccc4nccn4c2)CCC3)cc1F` [Compound 48, 6-(2-(2,5-difluoro-4-methylphenyl)-6,7-dihydro-5H-pyrrolo[1,2-a]imidazol-3-yl)imidazo[1,2-c]pyridine], for which the IC50 in experiment [1] (setting [3]) and in experiment [2] (setting [4]) was more than 1000 nM throughout.
As for `Fc1cc(Cl)c(-c2nc3n(c2-c2ccc4ncnn4c2)CCC3)cc1F` [Compound 49, 6-(2-(2-chloro-4,5-difluorophenyl)-6,7-dihydro-5H-pyrrolo[1,2-a]imidazol-3-yl)-[1,2,4]triazolo[1,5-a]pyridine], the IC50 in experiment [1] (setting [3]) and in experiment [2] (setting [4]) was 100 to 1000 nM in each case.
For the compound `Fc1cc(Cl)c(-c2nc3n(c2-c2ccc4nccn4c2)CCC3)cc1F` [Compound 50], the values for the IC50 in experiment [1] (setting [3]) and in experiment [2] (setting [4]) were 50 to 100 nM and 100 to 1000 nM, respectively.
For `NC(=O)c1cnc2ccc(-c3c(-c4ccc(F)c(Cl)c4)nc4n3CCC4)cn12` [Compound 51, 6-(2-(3-chloro-4-fluorophenyl)-6,7-dihydro-5H-pyrrolo[1,2-c]imidazol-3-yl)imidazo[1,2-c]pyridine-3-carboxamide], in that order: less than 50 nM and 50 to 100 nM.
For `Cc1cc(F)c(F)cc1-c1nc2n(c1-c1ccc3ncc(C(N)=O)n3c1)CCC2` [Compound 52, 6-(2-(4,5-difluoro-2-methylphenyl)-6,7-dihydro-5H-pyrrolo[1,2-a]imidazol-3-yl)imidazo[1,2-a]pyridine-3-carboxamide], in that order: less than 50 nM and 50 to 100 nM.
Consider `NC(=O)c1cnc2ccc(-c3c(-c4cc(F)c(F)c(F)c4)nc4n3CCC4)cn12` [Compound 53, 6-(2-(3,4,5-trifluorophenyl)-6,7-dihydro-5H-pyrrolo[1,2-a]imidazol-3-yl)imidazo[1,2-a]pyridine-3-carboxamide], for which the IC50 lay within 50 to 100 nM in experiment [1] (MPC-11, read-out: GDF8: inhibition of GDF8 signaling, GDF pSMAD (MPC11), p-SMAD3 (Ser423/425) AlphaScreen in cell lysate, GDF8 stimulation) and 50 to 100 nM in experiment [2] (MPC-11, read-out: TGF-β: inhibition of TGF-β signaling, TGF-β pSMAD (MPC-11), p-SMAD3 (Ser423/425) AlphaScreen in cell lysate, TGF-β stimulation).
Take `Cc1cc(F)ccc1-c1nc2n(c1-c1ccc3ncnn3c1)CCC2` [Compound 54, 6-(2-(4-fluoro-2-methylphenyl)-6,7-dihydro-5H-pyrrolo[1,2-a]imidazol-3-yl)-[1,2,4]triazolo[1,5-a]pyridine]: the IC50 was 100 to 1000 nM in experiment [1] (setting [3]) and more than 1000 nM in experiment [2] (setting [4]).
